According to the NIST ThermoML archive (doi:10.1021/je900903w):

Assay: mn = molality of the nth substance listed, in mol/kg
Conditions: 101 kPa, Liquid; for molar conductivity: Alternating current cell with electrodes

O=CO [formic acid] + O
Conditions	mass density, 298.15 K [kg/m3]	molar conductivity, 278.15 K [S·m2/mol]	molar conductivity, 283.15 K [S·m2/mol]	molar conductivity, 288.15 K [S·m2/mol]	molar conductivity, 293.15 K [S·m2/mol]	molar conductivity, 298.15 K [S·m2/mol]	molar conductivity, 303.15 K [S·m2/mol]	molar conductivity, 308.15 K [S·m2/mol]	molar conductivity, 313.15 K [S·m2/mol]
m1 = 0.0002709	–	0.0149	0.0165	0.018	0.01947	0.02084	0.02214	0.0233	0.0242
m1 = 0.0005657	–	0.0113	0.0125	0.0138	0.0149	0.0161	0.0171	0.018	0.0189
m1 = 0.0008298	–	0.00971	0.0108	0.0119	0.0129	0.0139	0.0149	0.0157	0.0164
m1 = 0.001094	–	0.00867	0.00965	0.0106	0.0115	0.0124	0.0133	0.0141	0.0147
m1 = 0.001442	–	0.00773	0.00862	0.00948	0.0103	0.0111	0.0119	0.0126	0.0132
m1 = 0.001825	–	0.0069	0.00768	0.00845	0.0092	0.00991	0.0106	0.0112	0.0117
m1 = 0.002222	–	0.00636	0.00709	0.00781	0.0085	0.00917	0.00981	0.0104	0.0109
m1 = 0.002648	–	0.00593	0.00661	0.00727	0.0079	0.00851	0.00907	0.00959	0.0101
m1 = 0.003208	–	0.00548	0.00611	0.00673	0.00733	0.00791	0.00845	0.00894	0.00939
m1 = 0.003957	–	0.00505	0.00563	0.0062	0.00675	0.00729	0.00779	0.00824	0.00866
m1 = 0.004898	997.113	0.00463	0.00517	0.0057	0.00621	0.0067	0.00717	0.0076	0.00799
m1 = 0.1291	998.53	–	–	–	–	–	–	–	–
